pIC50: −log10 of the molar value. Read-outs that look alike come from different tables or passages of the source.
Experiments:
PPM1A = test system: T1, PPM1A; experiment: PPM1A activity using p-nitrophenyl phosphate; assay type: biochemical; conditions: p-nitrophenyl phosphate substrate, concentrations as in Figure 5A
T1 construct: made in house
Protocol: (§1) To directly determine LKB1 activity, kinase assays were performed in the presence or absence of the indicated concentration of BAY-3827 or SBI-0206965 as for AMPK, except that LKBtide was used as a peptide substrate. PPM1A activity was determined using p-nitrophenyl phosphate (pNPP) as a substrate. PPM1A (5 µg) was incubated with 50 mM pNPP and 50 mM MgCl2 in Hepes buffer in the presence of a vehicle or the indicated concentration of BAY-3827 or SBI-0206965 for 10 min at 30 °C. The reaction was quenched by the addition of 1 mL of 0.5 M EDTA and the amount of product, p-nitrophenol, determined by measuring absorbance at 405 nm.

[1] = test system: Raptor (Ser792) phosphorylation in U2OS cells; experiment: Raptor phosphorylation in U2OS cells (Western blot); assay type: cell-based, human; conditions: 30 min inhibitor then 30 min MK-8722 (300 nM), read-out: IC50, inhibition of MK-8722-stimulated Raptor phosphorylation
Protocol: T-Rex U2OS cells carrying a Flp Recombinase Target (FRT) site were generated as described previously and grown in Dulbecco’s Modified Eagle’s Medium (DMEM) supplemented with 10% (v/v) FBS and 1% (v/v) penicillin/streptomycin.
Cells were lysed rapidly in situ on culture plates using ice-cold lysis medium containing phosphatase inhibitors, as described previously.
SDS-PAGE was performed using precast NuPAGE Tris-acetate 3–8% gradient polyacrylamide gels in Tris-acetate running buffer when analyzing ACC, GBF1, or Raptor, or NuPAGE Bis-Tris 4–12% gradient polyacrylamide gels in the MOPS buffer system (ThermoFisher Scientific, Waltham, MA, USA) for other proteins (unless stated otherwise). Proteins were transferred to nitrocellulose membranes using the iBlot 2 system (ThermoFisher Scientific). Membranes were enhanced if necessary using SuperSignal Western Blot Enhancer (ThermoFisher Scientific), then blocked for 1 h in Li-Cor Odyssey blocking buffer. The membranes were probed with the appropriate primary antibody ([…]) overnight at 4 °C. Detection was performed using secondary antibody or streptavidin probe (for total ACC) coupled to IR 680 or IR 800 dye, and the membranes were scanned using the LICOR Odyssey IR imager. Protein concentrations were determined by Coomassie Blue binding with bovine serum albumin as a standard. The cellular levels of AMP and ATP were determined via direct perchloric acid extraction from cells, with LC:MS used to estimate the levels of each nucleotide.

[2] = target: T2, LKB1 (human LKB1:STRADα:MO25α complex) (Homo sapiens, UniProt Q15831); experiment: LKB1 activity using LKBtide peptide; assay type: biochemical; conditions: LKBtide substrate
T2 construct: made in house
T2 sequence (Q15831 1-433): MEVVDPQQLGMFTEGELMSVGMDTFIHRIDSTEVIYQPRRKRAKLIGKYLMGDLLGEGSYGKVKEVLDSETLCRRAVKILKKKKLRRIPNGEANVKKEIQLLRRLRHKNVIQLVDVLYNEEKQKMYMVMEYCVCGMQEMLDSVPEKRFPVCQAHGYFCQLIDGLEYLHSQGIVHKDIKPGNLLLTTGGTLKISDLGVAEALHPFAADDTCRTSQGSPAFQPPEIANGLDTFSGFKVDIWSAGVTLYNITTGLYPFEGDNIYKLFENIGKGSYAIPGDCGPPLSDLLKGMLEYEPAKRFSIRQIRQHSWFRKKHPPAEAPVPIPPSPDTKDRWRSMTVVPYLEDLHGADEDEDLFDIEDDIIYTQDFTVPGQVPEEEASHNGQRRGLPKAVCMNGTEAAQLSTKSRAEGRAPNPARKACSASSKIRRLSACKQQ
T2 sequence (Q7RTN6 1-431 partner): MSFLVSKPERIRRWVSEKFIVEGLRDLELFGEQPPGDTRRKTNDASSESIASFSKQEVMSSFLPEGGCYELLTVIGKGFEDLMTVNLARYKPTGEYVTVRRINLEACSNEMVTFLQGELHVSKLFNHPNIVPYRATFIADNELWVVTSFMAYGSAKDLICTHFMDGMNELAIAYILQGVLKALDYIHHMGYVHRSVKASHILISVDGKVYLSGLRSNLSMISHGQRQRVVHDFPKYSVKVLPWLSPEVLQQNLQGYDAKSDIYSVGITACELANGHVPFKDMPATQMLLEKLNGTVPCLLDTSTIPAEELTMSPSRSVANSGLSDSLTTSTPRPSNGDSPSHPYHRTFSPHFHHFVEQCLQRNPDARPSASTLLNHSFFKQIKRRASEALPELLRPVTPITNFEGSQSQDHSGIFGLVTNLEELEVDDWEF
T2 sequence (Q9Y376 1-341 partner): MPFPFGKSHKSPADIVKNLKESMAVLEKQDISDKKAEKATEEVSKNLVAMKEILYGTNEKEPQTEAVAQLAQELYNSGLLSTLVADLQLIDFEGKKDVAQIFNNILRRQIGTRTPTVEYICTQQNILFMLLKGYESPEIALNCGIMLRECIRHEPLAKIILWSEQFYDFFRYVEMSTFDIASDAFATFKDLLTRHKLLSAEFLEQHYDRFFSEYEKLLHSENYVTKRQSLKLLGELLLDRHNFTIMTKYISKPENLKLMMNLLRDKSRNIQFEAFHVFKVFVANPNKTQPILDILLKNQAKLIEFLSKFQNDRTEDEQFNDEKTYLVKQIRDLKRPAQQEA
Protocol: as §1

pIC50 ([1]; Homo sapiens, 0.5 h)	effect on LKB1 activity ([2]; all concentrations used)	Compound	effect on activity of PPM1A (PPM1A)	pIC50 [1]	pIC50 ([2]; read-out: IC50, inhibition of LKB1 activity)
–	–	CNC(=O)c1ccccc1Oc1nc(Nc2cc(OC)c(OC)c(OC)c2)ncc1Br [SBI-0206965]	Lack of effect	5.04	5.21
6.95	no inhibition	CCc1ccccc1C(=O)Nc1n[nH]c2c(C)c(F)c(C3C(C#N)=C(C)N(C)C(C)=C3C#N)cc12 [BAY-3827]	Lack of effect	–	–

Source: PMC10778976, “BAY-3827 and SBI-0206965: Potent AMPK Inhibitors That Paradoxically Increase Thr172 Phosphorylation” (International Journal of Molecular Sciences, 2023)
